Experimental data: PMC4786642, “Catch-bond mechanism of the bacterial adhesin FimH” (Nature Communications, 2016)
Where two headings read alike, the source gives them in different places.

Assays:
FimH^K12·DsG [1] = target: T1, FimH^K12·DsG (Escherichia coli, UniProt P08191); format: binding, E. coli strain K12; settings: for Kd: HM, FimH^K12·DsG
T1 construct: those of the corresponding full-length FimH·DsG complexes; made in house; host or cells: E. coli HM125 (periplasm); DsG peptide synthetic, from JPT
Procedure: A constant FimH·DsG concentration of 1 or 2 μM was used. […] The fluorescence traces were globally fitted with Dynafit[59] according to a second-order binding and first-order dissociation reaction.

FimH^K12·DsG [2] = target: T1, FimH^K12·DsG; format: binding, E. coli strain K12; settings: HM, FimH^K12·DsG
Procedure: (§1) Measurements were performed with a stirred 1 × 0.4-cm quartz cuvette. […] The samples were equilibrated overnight, and their fluorescence intensities were recorded for 30 s and averaged.

FimH^K12·DsG [3] = format: binding, E. coli strain K12; settings: HM, FimH variant K12
Procedure: as §1

FimH^F18·DsG [4] = target: T2, FimH^F18·DsG (Escherichia coli, UniProt P08191, N91S/S99N/V48A); settings: HM; for Kd: FimH^F18·DsG
Procedure: as §1

[5] = tested on: FimH^F18-Ala188Asp-piliated E. coli; experiment: Cell tracking on mannose-BSA-coated surfaces, static conditions; format: cell-based; settings: in the presence of 200 μM HM; FimH^F18-Ala188Asp-piliated bacteria
Text: (§2) The E. coli KB18 strain[67] was kindly provided by Professor Evgeni Sokurenko and served as host for the generation of recombinant strains. KB18 contains the pPKL114 plasmid, which encodes the whole fim operon with a translational stop linker upstream of the fimH gene. KB18 was co-transformed with the pGB2-24 plasmid, which was isolated from the ELT115 strain and encodes fimH^J96 (kindly provided by Professor Evgeni Sokurenko). Single-nucleotide point mutations were introduced in fimH^J96 using overlap extension PCR following standard molecular techniques to obtain fimH^F18 and fimH^F18-Ala188Asp. The PCR products were cloned into pGB2-24 by the ApaLI and SphI sites, and KB18 was transformed with the resulting plasmid. […]
(§3) Cell tracking was carried out at room temperature under static conditions. […] Time-lapse movies were recorded with a × 20 phase contrast objective using a CMOS digital camera (The Imaging Source Europe, Bremen, Germany) mounted on a Nikon Ti Eclipse inverted microscope and using the NIS Elements Basic Research software (Nikon, Zurich, Switzerland). […] Five to seven independent movies were recorded for each experimental set-up: FimH^F18 or FimH^F18-Ala188Asp on 1M-BSA-coated dishes and FimH^F18 and FimH^F18-Ala188Asp on BSA-coated cell culture dishes. […]

[6] = tested on: FimH^F18-piliated E. coli; experiment: as above; format: cell-based; settings: in the presence of 200 μM HM; FimH^F18-piliated bacteria
Text: as §2, §3

[7] = tested on: E. coli piliated with FimH^F18 or FimH^F18-Ala188Asp; experiment: Cell tracking on mannose-BSA-coated surfaces, static conditions (strain not separated); format: cell-based
Text: The E. coli KB18 strain[67] was kindly provided by Professor Evgeni Sokurenko and served as host for the generation of recombinant strains. KB18 contains the pPKL114 plasmid, which encodes the whole fim operon with a translational stop linker upstream of the fimH gene. KB18 was co-transformed with the pGB2-24 plasmid, which was isolated from the ELT115 strain and encodes fimH^J96 (kindly provided by Professor Evgeni Sokurenko). Single-nucleotide point mutations were introduced in fimH^J96 using overlap extension PCR following standard molecular techniques to obtain fimH^F18 and fimH^F18-Ala188Asp. The PCR products were cloned into pGB2-24 by the ApaLI and SphI sites, and KB18 was transformed with the resulting plasmid.
E. coli strains were grown from frozen stocks in LB medium supplemented with antibiotics (100 μg ml^−1 ampicillin and 25 μg ml^−1 chloramphenicol) until late log phase (OD600 of 1.0–1.2) and diluted to an OD600 of 0.01 before movie acquisition.
Cell culture dishes (35 mm, Corning Inc., Corning, NY) were incubated with 50 μl of 50 μg ml^−1 1M-BSA in 0.02 M bicarbonate buffer for 75 min at 37 °C. The dishes were then washed three times and quenched with 0.1% PBS–BSA to remove unbound 1M-BSA and block remaining sites on the plastic surface to prevent nonspecific binding of bacteria. Controls were prepared by treating cell culture dishes with 0.1% PBS–BSA only. The bacterial suspension was added to the cell culture dishes for microscopy studies.
Cell tracking was carried out at room temperature under static conditions. A bacterial suspension of 50 μl in the late logarithmic growth phase was placed onto the cell culture dishes (diluted to OD600 of 0.01), and a cover slide was placed on top. The delay between sample placement and start of the movie acquisition was about 1 min. Time-lapse movies were recorded with a × 20 phase contrast objective using a CMOS digital camera (The Imaging Source Europe, Bremen, Germany) mounted on a Nikon Ti Eclipse inverted microscope and using the NIS Elements Basic Research software (Nikon, Zurich, Switzerland). Phase contrast images in an ∼5-μm-thick surface layer were taken at four to five frames per second over 5 min. The dead time of movie acquisition was ∼1 min. The resulting images were segmented by creating a projection of the average intensities over all frames to remove the background and by subsequent thresholding using the Maximum Entropy method in Fiji[68] to obtain binary images (examples shown in Supplementary Movies 1 and 2). […] Five to seven independent movies were recorded for each experimental set-up: FimH^F18 or FimH^F18-Ala188Asp on 1M-BSA-coated dishes and FimH^F18 and FimH^F18-Ala188Asp on BSA-coated cell culture dishes. […]

FimH^F18·DsG [8] = target: T2, FimH^F18·DsG; settings: for Kd: HM, FimH^F18·DsG
FimHL^K12 [9] = target: T3, FimHL^K12 (Escherichia coli, UniProt P08191); settings: HM
FimHL^F18 [10] = target: T4, FimHL^F18 (Escherichia coli, UniProt P08191, N91S/S99N/V48A); settings: HM
FimHL^K12 [11] = target: T3, FimHL^K12
FimHL^F18 [12] = target: T4, FimHL^F18
FimHL^K12 [13] = target: T3, FimHL^K12; experiment: Equilibrium titration of FimHL with GN-FP-4 (fluorescence); format: binding, E. coli strain K12; design: The isolated lectin domains (residues 1–159) of both FimH variants; made in house; host or cells: E. coli HM125 (periplasm)
Procedure: (§4) The concentration of GN-FP-4 was kept constant at 1.0 or 2.0 nM and the concentration of FimHL was varied between 0 and 10 nM. The samples were equilibrated overnight, and their fluorescence intensities at 520 nm were recorded for 30 s and averaged. The experimental data were fitted according to equation (2).

FimHL^F18 [14] = target: T4, FimHL^F18; experiment: as above; format: binding, E. coli strain F18; design: The isolated lectin domains (residues 1–159) of both FimH variants; made in house; host or cells: E. coli HM125 (periplasm), plasmid pfimHL^F18
Procedure: as §4

T3 sequence (P08191 22-180): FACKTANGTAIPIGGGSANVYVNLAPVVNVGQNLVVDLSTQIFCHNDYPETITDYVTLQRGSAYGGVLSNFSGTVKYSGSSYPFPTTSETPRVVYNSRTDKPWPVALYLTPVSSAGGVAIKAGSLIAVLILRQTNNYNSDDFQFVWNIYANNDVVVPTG
T4 sequence (P08191 22-180 V48A/N91S/S99N): as the sequence (P08191 22-180) above, with V27A, N70S, S78N counted along it
T1 sequence (P08191 22-300, other chains not shown): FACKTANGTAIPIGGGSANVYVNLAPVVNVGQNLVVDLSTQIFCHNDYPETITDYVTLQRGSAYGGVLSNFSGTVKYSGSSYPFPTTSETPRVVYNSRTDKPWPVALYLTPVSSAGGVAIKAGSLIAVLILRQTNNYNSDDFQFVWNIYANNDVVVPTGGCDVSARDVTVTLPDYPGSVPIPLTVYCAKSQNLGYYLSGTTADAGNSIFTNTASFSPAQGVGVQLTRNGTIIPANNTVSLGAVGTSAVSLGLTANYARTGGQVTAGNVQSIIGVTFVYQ
T2 sequence (P08191 22-300 V48A/N91S/S99N, other chains not shown): as the sequence (P08191 22-300, other chains not shown) above, with V27A, N70S, S78N counted along it

## CCCCCCCO[C@H]1O[C@H](CO)[C@@H](O)[C@H](O)[C@@H]1O [HM, n-heptyl α-D-mannoside]
FimH^K12·DsG [1]; HM binding to FimH^K12·DsG, pH 7.4, 25 °C
  kon (M^−1 s^−1): 5.0±0.1 × 10^6 M^−1 s^−1
FimH^K12·DsG [1]; HM dissociation from FimH^K12·DsG, pH 7.4, 25 °C
  koff (s^−1): 2.2±0.1 × 10^1 s^−1
FimH^K12·DsG [1]; pH 7.4, 25 °C, ratio of rate constants, read-out: koff/kon
  Kd: 4.3 µM
FimH^K12·DsG [1]; pH 7.4, 25 °C, stopped-flow amplitudes, read-out: Kd (amplitude analysis; M)
  Kd: 4.2 µM
FimH^K12·DsG [1]; read-out: Kd (amplitudes of stopped-flow reactions)
  Kd: 4.2 ± 0.3 µM
FimH^K12·DsG [2]; equilibrium titration, read-out: equilibrium dissociation constant (Kd)
  Kd: 3.6 µM
FimH^K12·DsG [2]; pH 7.4, 25 °C, read-out: Kd (equilibrium titration; M)
  Kd: 3.6 µM
FimH^K12·DsG [3]
  Kd (FimH·DsG)/Kd (FimHL): 3,300
FimH^F18·DsG [4]; FimH variant F18
  Kd (FimH·DsG)/Kd (FimHL): 3,300
FimH^F18·DsG [4]; read-out: Kd (equilibrium titration; M), pH 7.4, 25 °C
  Kd: 9.9 µM
FimH^F18·DsG [4]; read-out: equilibrium dissociation constant (Kd), equilibrium titration
  Kd: 9.9 µM
[5]
  mean velocity on 1M-BSA: 5.9 μm s^−1
[6]
  mean velocity on 1M-BSA: 6.5 μm s^−1
[7]; in the presence of 200 μM HM
  reduction of permanent attachment to 1M-BSA: 85%
  reduction of transient attachment to 1M-BSA: 75%
[7]; in the presence of HM
  transient and permanent attachment to 1M-BSA: significantly reduced
[7]; upon addition of 100 µM HM
  bacterial velocity on 1M-BSA: increased
FimH^F18·DsG [8]; HM binding to FimH^F18·DsG, pH 7.4, 25 °C
  kon (M^−1 s^−1): 4.9±0.1 × 10^6 M^−1 s^−1
FimH^F18·DsG [8]; HM dissociation from FimH^F18·DsG, pH 7.4, 25 °C
  koff (s^−1): 5.8±0.1 × 10^1 s^−1
FimH^F18·DsG [8]; read-out: Kd (amplitude analysis; M), pH 7.4, 25 °C, stopped-flow amplitudes
  Kd: 12 µM
FimH^F18·DsG [8]; read-out: Kd (amplitudes of stopped-flow reactions), amplitude analysis
  Kd: 12 ± 1 µM
FimH^F18·DsG [8]; read-out: koff/kon, pH 7.4, 25 °C, ratio of rate constants
  Kd: 12 µM
FimHL^K12 [9]; FimHL^K12, displacement of GN-FP-4
  Kd: 0.0011 µM
FimHL^K12 [9]; read-out: Kd (equilibrium titration; M), FimHL^K12, pH 7.4, 25 °C, from competition equilibria with GN-FP-4
  Kd: 0.0011 µM
FimHL^F18 [10]; FimHL^F18, displacement of GN-FP-4
  Kd: 0.003 µM
FimHL^F18 [10]; read-out: Kd (equilibrium titration; M), FimHL^F18, pH 7.4, 25 °C, from competition equilibria with GN-FP-4
  Kd: 0.003 µM
FimHL^K12 [11]; HM binding to FimHL^K12, pH 7.4, 25 °C, calculated with koff and Kd
  kon (M^−1 s^−1): 1.8±0.6 × 10^5(d) M^−1 s^−1
FimHL^K12 [11]; HM dissociation from FimHL^K12, pH 7.4, 25 °C
  koff (s^−1): 2.0±0.4 × 10^−4 s^−1
FimHL^F18 [12]; HM binding to FimHL^F18, pH 7.4, 25 °C, calculated with koff and Kd
  kon (M^−1 s^−1): 1.2±0.4 × 10^5(d) M^−1 s^−1
FimHL^F18 [12]; HM dissociation from FimHL^F18, pH 7.4, 25 °C
  koff (s^−1): 3.5±0.8 × 10^−4 s^−1

## O=C(NCCNC(=S)Nc1ccc2c(c1)C(=O)OC21c2ccc(O)cc2Oc2cc(O)ccc21)c1ccc(-c2ccc(O[C@H]3O[C@H](CO)[C@@H](O)[C@H](O)[C@@H]3O)c(Cl)c2)cc1 [GN-FP-4, 3′-Chloro-N-(2-(3-(3′,6′-dihydroxy-3-oxo-3H-spiro[isobenzofuran-1,9′-xanthen]-5-yl)-thioureido)ethyl)-4′-(α-D-mannopyranosyloxy)-biphenyl-4-carboxamide]
FimHL^K12 [13]; FimHL^K12, equilibrium fluorescence titration, read-out: Kd
  Kd: 0.07 nM
FimHL^K12 [13]; FimHL^K12, pH 7.4, 25 °C, read-out: Kd of GN-FP-4 binding
  Kd: 0.07 nM
FimHL^K12 [13]; FimHL^K12 and FimHL^F18
  fold higher affinity compared to HM: 16 fold
FimHL^F18 [14]
  Kd: 0.00018 µM
